Assay: xn = mol fraction of the nth substance listed, in the solute-free solvent

Clc1ncnc2[nH]ccc12 + C1CCOC1 + CO
solubility (g/100 g solution)
Details | 278.15 K | 283.15 K | 288.15 K | 293.15 K | 298.15 K | 303.15 K | 308.15 K | 313.15 K | 318.15 K | 323.15 K
x2 = 0.09054 | 4.18 | 4.85 | 5.59 | 6.45 | 7.41 | 8.85 | 9.6 | 10.8 | 12.2 | 13.6
x2 = 0.1993 | 6.2 | 7.11 | 8.13 | 9.15 | 10.3 | 11.6 | 12.9 | 14.3 | 15.9 | 17.4
x2 = 0.3323 | 8.17 | 9.22 | 10.3 | 11.4 | 12.7 | 14.1 | 15.4 | 17 | 18.5 | 20.2
x2 = 0.4107 | 8.75 | 9.76 | 10.9 | 12 | 13.4 | 14.6 | 16.1 | 17.5 | 19.1 | 20.7
x2 = 0.4989 | 9.02 | 10 | 11.1 | 12.2 | 13.5 | 14.8 | 16.1 | 17.5 | 18.9 | 20.5
x2 = 0.7134 | 8.95 | 9.87 | 10.8 | 11.8 | 13 | 14 | 15.2 | 16.5 | 17.7 | 19.1

O=c1[nH]cc(F)c(=O)[nH]1 + O + C1CCOC1
solubility (g/100 g solution)
Details | 283.15 K | 288.15 K | 293.15 K | 298.15 K | 303.15 K | 308.15 K | 313.15 K | 318.15 K | 323.15 K
x2 = 0.5001 | 0.119 | 0.145 | 0.171 | 0.198 | 0.236 | 0.281 | 0.337 | 0.424 | 0.513
x2 = 0.7273 | 0.219 | 0.264 | 0.307 | 0.36 | 0.423 | 0.498 | 0.61 | 0.721 | 0.868
x2 = 0.8572 | 0.382 | 0.44 | 0.504 | 0.585 | 0.675 | 0.811 | 0.97 | 1.08 | 1.3
x2 = 0.9412 | 0.615 | 0.702 | 0.795 | 0.91 | 1.05 | 1.22 | 1.45 | 1.74 | 1.93

O=c1[nH]cc(F)c(=O)[nH]1 + CO + C1CCOC1
solubility (g/100 g solution)
Details | 283.15 K | 288.15 K | 293.15 K | 298.15 K | 303.15 K | 308.15 K | 313.15 K | 318.15 K | 323.15 K
x2 = 0.36 | 0.152 | 0.171 | 0.193 | 0.219 | 0.254 | 0.294 | 0.348 | 0.403 | 0.473
x2 = 0.6 | 0.283 | 0.317 | 0.356 | 0.407 | 0.472 | 0.546 | 0.639 | 0.745 | 0.862
x2 = 0.7714 | 0.423 | 0.483 | 0.552 | 0.636 | 0.73 | 0.876 | 1.04 | 1.23 | 1.42
x2 = 0.9 | 0.58 | 0.665 | 0.789 | 0.914 | 1.05 | 1.25 | 1.43 | 1.65 | 1.85

COC(=O)C1=C(C)NC(C)=C(C(=O)OCC(C)C)C1c1ccccc1[N+](=O)[O-] (stereo not given) + CCCO + O
solubility (g/100 g solution)
Details | 278.15 K | 283.15 K | 288.15 K | 293.15 K | 298.15 K | 303.15 K | 308.15 K | 313.15 K | 318.15 K
x2 = 0.03225 | 0.131 | 0.174 | 0.219 | 0.268 | 0.346 | 0.422 | 0.526 | 0.638 | 0.78
x2 = 0.06974 | 0.532 | 0.647 | 0.806 | 0.96 | 1.16 | 1.37 | 1.62 | 1.92 | 2.23
x2 = 0.1139 | 0.997 | 1.25 | 1.49 | 1.81 | 2.21 | 2.6 | 3.12 | 3.63 | 4.27
x2 = 0.1666 | 1.41 | 1.75 | 2.12 | 2.56 | 3.1 | 3.6 | 4.37 | 5.07 | 5.97
x2 = 0.2307 | 1.69 | 2.05 | 2.52 | 3.08 | 3.7 | 4.42 | 5.22 | 6.16 | 7.24
x2 = 0.3103 | 2.02 | 2.49 | 2.99 | 3.59 | 4.3 | 5.12 | 6.03 | 7.01 | 8.15
x2 = 0.4117 | 2.29 | 2.82 | 3.37 | 4.11 | 4.82 | 5.73 | 6.73 | 7.81 | 9.08
x2 = 0.5454 | 2.47 | 3.06 | 3.68 | 4.45 | 5.28 | 6.23 | 7.23 | 8.39 | 9.79
x2 = 0.7297 | 2.47 | 3.01 | 3.69 | 4.38 | 5.22 | 6.28 | 7.42 | 8.7 | 10

O=c1ccc2ccccc2o1 + CC(C)=O + O
solubility (g/100 g solution)
Details | x2 = 0.1 | x2 = 0.2 | x2 = 0.3 | x2 = 0.4 | x2 = 0.5 | x2 = 0.6 | x2 = 0.7 | x2 = 0.8 | x2 = 0.9
268.15 K | 0.474 | 2.21 | 4.51 | 9.81 | 13.8 | 17.1 | 19.9 | 21.9 | 23.1
273.15 K | 0.611 | 2.81 | 6.5 | 11.9 | 16.8 | 20.6 | 23.7 | 25.8 | 26.9
278.15 K | 0.798 | 3.96 | 8.98 | 15.3 | 20.9 | 25 | 27.8 | 30.6 | 31.5
283.15 K | 1.05 | 5.18 | 12.2 | 19.5 | 25.5 | 30.2 | 33.1 | 35.3 | 36.2
288.15 K | 1.38 | 6.75 | 16.8 | 24.6 | 31.4 | 36 | 39.3 | 41.2 | 41.8
293.15 K | 1.8 | 9.24 | 22.3 | 31.3 | 38.5 | 42.9 | 46.2 | 47.7 | 48
298.15 K | 2.27 | 12.3 | 29.6 | 38.4 | 45.7 | 49.6 | 52.6 | 53.6 | 53.9
303.15 K | 2.96 | 16.8 | 37.4 | 47 | 53.9 | 57.2 | 59.4 | 59.8 | 59.8
